These results are taken from patent US20260374767A1, “FUSED HETEROCYCLIC COMPOUNDS AND USES THEREOF” (Chengdu Zenitar Biomedical Technology Co., Ltd., priority 2022, published 2026).

Series [1] can be described thus: Body weight in MDA-MB-436 xenograft study. Format: in vivo, NOD/SCID mice. Particulars: for Body weight X ± SD, End: 24 days. As for the experimental part: Animal assay: all viable experimental animals scheduled for assay; Assay time: All animals were weighed before the modeling for test grouping. After modeling, the mice were weighed once every 2 days, and the weight change of the mice was recorded in real time. Effective criteria: tumor volume (TV), relative tumor volume (RTV) and relative tumor growth rate of subcutaneously implanted tumor model. The long diameter and short diameter of the tumor was measured with vernier calipers every 2 days, and the anti-tumor effects of the tested drug was dynamically observed. The calculation formula of tumor volume (TV) was: TV (mm^3)=a×b2×0.5, where a and b were the long diameter and short diameter, respectively.
Each group consisted of 6 mice, all of which are administered orally once daily. […] After 24 days of administration, the tumor-bearing mice were anesthetized and euthanized. The tumor tissues were dissected, weighed, and photographed, and the tumor inhibition rate was calculated.

For series [2], the system named is breast cancer MDA-MB-436. Nature of the series: In-vivo pharmacodynamic study on subcutaneous xenograft tumor model of breast cancer MDA-MB-436. Set-up: species or system human tumor cells in NOD/SCID mice. Particulars: for inhibitory effects on tumor growth compared to blank control group: all dose groups. As for the experimental part:
Strain: NOD/SCID; Grade: SPF; Source: Beijing Vitron River Bio-technology Co., Ltd.
The cells were washed 3 times with pre-cooled PBS, centrifuged at 300 g for 10 min, collected, re-suspended in PBS, and counted with a blood cell counting chamber, and the cell concentration was adjusted. After cell collection, the cell suspension was pre-cooled on ice. 100 μL of the cell suspension was administered via subcutaneous injection into the dorsal flank of the mice, and the grouped treatment was started when the tumor volume reached 200-300 mm^3.
Animal assay: all viable experimental animals scheduled for assay; Assay time: All animals were weighed before the modeling for test grouping. After modeling, the mice were weighed once every 2 days, and the weight change of the mice was recorded in real time. Effective criteria: tumor volume (TV), relative tumor volume (RTV) and relative tumor growth rate of subcutaneously implanted tumor model. […] The calculation formula of tumor volume (TV) was: TV (mm^3)=a×b2×0.5, where a and b were the long diameter and short diameter, respectively.
The evaluation index for anti-tumor activity was the relative tumor growth rate T/C (%), and the calculation formula was as follows: […]
Where, TRTV is relative tumor volume of the treatment group; CRTV is relative tumor volume of the negative control group. […] The tumor inhibition rate (%) was calculated by the formula below: […]
All raw data within the facility were collected manually according to the experimental scheme and the relevant guidelines of the research institution, or gathered by using a data acquisition system. Manually collected data can be transcribed into software such as Excel for analysis and reporting. The data from each group were quantitative, and the experimental data for each group of animals in the tables were expressed as mean±standard deviation (Mean±SD). In the figures, the experimental data ware described as mean±standard error of the mean (Mean±SEM). Statistical analysis, including t-tests and survival analysis, was performed by using the software such as EXCEL and GraphPad Prism.
After 24 days of administration, the tumor-bearing mice were anesthetized and euthanized. The tumor tissues were dissected, weighed, and photographed, and the tumor inhibition rate was calculated.

Series [3] in a line: Pharmacokinetic evaluation in Balb/c mice. Format: in vivo. Particulars: mouse, plasma, 1 mg/kg, PO.
Series [4] concerns DLD-1 cells. Kind of series: Anti-proliferative activity assay, BRCA wild-type DLD-1 cells (CCK8). Format: cell-based. Particulars: Homo sapiens, 72 h + 96 h. From the text:
(§1) 2. Anti-Proliferative Activity Assay of Cell:

In series [5] the test system is breast cancer MDA-MB-436. Nature of the series: Challenge experiment on subcutaneous xenograft tumor model of breast cancer MDA-MB-436 (large-volume tumors). Particulars: 1 mg/kg orally once per day.
The test system of series [6] is MDA-MB-436 cells. Nature of the series: Anti-proliferative activity assay, BRCA-mutated MDA-MB-436 cells (CCK8). Format: cell-based. Particulars: Homo sapiens, MDA-MB-436, BRCA-mutated, 72 h + 96 h.
Text: as §1

The target in series [7] is PARP1 (Homo sapiens, UniProt P09874). Nature of the series: Determination of PARP1 Enzyme. The settings on record: read-out: PARP-1 inhibition ratio. The class given is biochemical. As for the experimental part: 1.1 Determination of PARP1 Enzyme
1.1.1 Preparation of buffer solution: PBST: 1× PBS, 0.05% Tween-20; blocking solution: 1× PBS, 0.05% Tween-20, 5% BSA; reaction buffer: 50 mM Tris-HCl (pH 7.5), 0.005% Tween-20, 0.01% BSA.
1.1.2 Coating: A 50 ng/mL Histone coating solution was prepared by using 1× PBS, 25 μL of the coating solution was transferred to a 384-well reaction plate, and the reaction plate was coated overnight at 4 °C.
1.1.3 Washing: After the coating was completed, the coating solution was discarded, and the reaction plate was washed with the PBST solution by means of transferring 50 μL of the PBST to the 384-well reaction plate, letting it stand for 5 min, discarding the washing solution, refilling the reaction plate, and repeating the washing process 3 times. Finally, the reaction plate was tapped dry and the next step of blocking was proceeded with.
1.1.4 Blocking: 50 μL of the blocking solution was transferred to the 384-well reaction plate and set for 1 h.
Washing: After the blocking was completed, the blocking solution was discarded, the reaction plate was washed 3 times with the PBST solution according to the method in Step 2, and the reaction plate was tapped dry.
1.1.5 A 1,000× compound was prepared, 1 μL of the compound was transferred to a 96-well plate containing 199 μL of the reaction buffer, mixed well, and then 5 µL of the mixed compound was transferred to the 384-well reaction plate.
1.1.6 A 25/10× PARP1-DNA solution was prepared by using the reaction buffer, 10 μL of the PARP1-DNA solution was transferred to the 384-well reaction plate. For a negative control well, 10 μL of the DNA solution was transferred and the final concentration of PARP1 was 0.02 nM and that of DNA was 0.8 nM.
1.1.9 Washing: After the reaction was completed, the reaction liquid was discarded. The reaction plate was washed 3 times with the PBST solution according to the method in Step 2, and the reaction plate was tapped dry.
1.1.11 Washing: The anti-Poly/Mono-ADP Ribose Rabbit was discarded, the reaction plate was washed 3 times with the PBST solution according to the method in Step 2, and the reaction plate was tapped dry.
1.1.12 A 2,000× anti-rabbit IgG, HRP-linked Antibody was diluted with the blocking solution, 20 μL of the diluted anti-rabbit IgG, HRP-linked Antibody was added, and incubated at room temperature for 1 h.
1.1.13 Washing: The anti-rabbit IgG, HRP-linked Antibody was discarded, the reaction plate was washed 3 times with the PBST solution according to the method in Step 2, and the reaction plate was tapped dry.
1.1.14 Color developing: Femto-ECL Substrate A and Femto-ECL Substrate B were mixed in a 1:1 ratio, and 25 μL of the mixture was transferred to the 384-well reaction plate.
1.1.15 Reading: A relative light unit (RLU) was read with Envision.

Where [8] appears, read: 0.1 mg/kg orally once daily, 24 days.

PARP1, sequence (P09874 whole entry): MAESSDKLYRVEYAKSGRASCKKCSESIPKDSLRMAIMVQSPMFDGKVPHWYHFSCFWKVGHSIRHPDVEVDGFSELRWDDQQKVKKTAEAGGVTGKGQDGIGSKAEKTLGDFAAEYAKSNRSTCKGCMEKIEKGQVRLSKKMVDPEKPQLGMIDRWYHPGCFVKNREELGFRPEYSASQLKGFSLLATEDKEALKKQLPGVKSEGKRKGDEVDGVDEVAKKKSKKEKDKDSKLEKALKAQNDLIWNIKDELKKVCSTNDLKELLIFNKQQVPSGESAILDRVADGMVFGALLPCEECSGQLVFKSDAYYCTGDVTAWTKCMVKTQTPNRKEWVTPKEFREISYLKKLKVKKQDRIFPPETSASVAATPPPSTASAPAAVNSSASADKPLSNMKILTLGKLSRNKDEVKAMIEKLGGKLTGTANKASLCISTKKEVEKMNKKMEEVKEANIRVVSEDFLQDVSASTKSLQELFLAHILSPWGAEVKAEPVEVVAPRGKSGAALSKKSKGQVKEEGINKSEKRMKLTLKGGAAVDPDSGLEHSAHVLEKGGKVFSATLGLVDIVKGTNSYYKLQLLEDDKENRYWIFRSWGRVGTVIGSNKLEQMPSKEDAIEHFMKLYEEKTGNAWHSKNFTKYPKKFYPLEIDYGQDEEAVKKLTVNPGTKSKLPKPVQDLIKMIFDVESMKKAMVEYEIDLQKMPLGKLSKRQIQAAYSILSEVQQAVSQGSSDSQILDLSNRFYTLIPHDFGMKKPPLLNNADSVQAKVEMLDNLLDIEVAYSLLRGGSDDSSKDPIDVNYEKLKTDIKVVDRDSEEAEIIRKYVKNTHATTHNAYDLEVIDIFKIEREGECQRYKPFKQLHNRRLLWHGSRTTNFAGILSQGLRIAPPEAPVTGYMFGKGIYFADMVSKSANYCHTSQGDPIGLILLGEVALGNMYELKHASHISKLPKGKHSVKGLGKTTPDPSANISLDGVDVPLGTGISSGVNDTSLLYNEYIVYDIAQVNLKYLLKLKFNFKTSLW

As for `CCc1cc2ncc(CN3CCN(c4ccc(C(=O)NC)nc4)CC3)cc2[nH]c1=O` [AZD5305, reference compound], in series [1] (0.1 mg/kg orally once daily), the “Body weight X ± SD, End” value is reported as 21.8 ± 1.0 g and the “Body weight X ± SD, Start” value was determined as 21.9 ± 0.7 g. Besides, the “inhibitory effects on tumor growth compared to blank control group” value in series [2] (24 days) is “significant inhibitory effects on tumor growth”.
For the compound `CCc1cc2ncc(CN3CC=C(c4ccc(C(=O)NC)nc4)CC3)cc2[nH]c1=O` [Compound 1], the CL/F in series [3] was 0.167 mL/min/kg. Further, in series [1] (0.1 mg/kg orally once daily), the “Body weight X ± SD, End” value stood at 21.6 ± 1.1 g and the “Body weight X ± SD, Start” value was 21.6 ± 0.3 g. Further, in series [2] (setting [8]), the Tumor inhibition rate is listed as 82.18% and the “Tumor weight X ± SD” value is recorded as 0.39 ± 0.28 g. For the same compound, the “Tumor volume X ± SD, End” value in series [2] (0.1 mg/kg orally once daily, end, 24 days) turned out to be 304.9 ± 141.7 mm^3. Moreover, in series [2] (0.1 mg/kg orally once daily, start), the “Tumor volume X ± SD, Start” value is given as 271.4 ± 76.6 mm^3. Further, the “inhibitory effects on tumor growth compared to blank control group” value in series [2] (24 days) is on record as “significant inhibitory effects on tumor growth”. Besides, the IC50 in series [4] is above 10000 nM. In addition, the “tumor regression in large-volume tumors” value in series [5] is “complete regression of tumors”. The IC50 in series [6] came out at 0.9 nM.
For `[2H]C([2H])([2H])NC(=O)c1ccc(C2=CCN(Cc3cnc4cc(CC)c(=O)[nH]c4c3)CC2)cn1` [Compound 2], the figures for the IC50 in series [4] and in series [6] were above 10000 nM and 1.1 nM, respectively.
In the same order, the values of `[2H]C(c1cnc2cc(CC)c(=O)[nH]c2c1)N1CC=C(c2ccc(C(=O)NC)nc2)CC1` (stereo not shown) [Compound 3] are above 10000 nM and 1 nM.
In the same order, the values of `[2H]C([2H])([2H])NC(=O)c1ccc(C2=CCN(Cc3cnc4cc(C([2H])([2H])C([2H])([2H])[2H])c(=O)[nH]c4c3)CC2)cn1` [Compound 11, 1′-((7-(ethyl-d5)-6-oxo-5,6-dihydro-1,5-naphthyridin-3-yl)methyl)-N-(methyl-d3)-1′,2′,3′,6′-tet rahydro-[3,4′-bipyridine]-6-carboxamide] are above 10000 nM and 0.8 nM.
On to `[2H]C([2H])([2H])C([2H])([2H])c1cc2ncc(CN3CC=C(c4ccc(C(=O)NC5CC5)nc4)CC3)cc2[nH]c1=O` [Compound 12, N-cyclopropyl-1′-((7-(ethyl-d5)-6-oxo-5,6-dihydro-1,5-naphthyridin-3-yl)methyl)-1′,2′,3′,6′-tet rahydro-[3,4′-bipyridine]-6-carboxamide], for which, in series [7], the inhibition at 0.01 µM came out at 99.8% and the inhibition at 0.1 µM was 99.9%.
The matching figures for `[2H]C([2H])([2H])C([2H])([2H])c1nc2ccc(CN3CC=C(c4ccc(C(=O)NC)nc4)CC3)c(F)c2[nH]c1=O` [Compound 13, 1′-((2-(ethyl-d5)-5-fluoro-3-oxo-3,4-dihydroquinoxalin-6-yl)methyl)-N-methyl-1′,2′,3′,6′-tetra hydro-[3,4′-bipyridine]-6-carboxamide]: 96.1% and 98.5%.
For `[2H]C([2H])([2H])C([2H])([2H])c1nc2ccc(CN3CC=C(c4ccc(C(=O)NC)nc4F)CC3)c(F)c2[nH]c1=O` [Compound 14, 1′-((2-(ethyl-d5)-5-fluoro-3-oxo-3,4-dihydroquinoxalin-6-yl)methyl)-2-fluoro-N-methyl-1′,2′,3′,6′-tetrahydro-[3,4′-bipyridine]-6-carboxamide], in series [7], the inhibition at 0.01 µM was 98.9% and the inhibition at 0.1 µM stood at 99.1%.
As to `[2H]C([2H])([2H])Cc1cc2ncc(CN3CC=C(c4ccc(C(=O)NC)nc4)CC3)cc2[nH]c1=O` [Compound 16, 1′-((7-(ethyl-2,2,2-d3)-6-oxo-5,6-dihydro-1,5-naphthyridin-3-yl)methyl)-N-methyl-1′,2′,3′,6′-t etrahydro-[3,4′-bipyridine]-6-carboxamide], the IC50 was above 10000 nM in series [4] and 0.7 nM in series [6].
With `O=C(c1cc(Cc2n[nH]c(=O)c3ccccc23)ccc1F)N1CCN(C(=O)C2CC2)CC1` [Olaparib, reference compound], in series [1] (100 mg/kg orally once daily), the “Body weight X ± SD, End” value came to 21.7 ± 1.4 g and the “Body weight X ± SD, Start” value was 21.9 ± 1.1 g. For the same compound, in series [2] (24 days), the “inhibitory effects on tumor growth compared to blank control group” value is given as “significant inhibitory effects on tumor growth”.
